{"source": "patent US11406660B2", "about": "“Treatment of bone marrow edema (OEDEMA) with polysulfated polysaccharides” (PARADIGM HEALTH SCIENCES PTY LTD, priority 2011, dated 2022)", "key": {"[1]": {"tested_on": "subchondral BME in the femoral subchondral bone", "experiment": "Case report Example 1: subject, knee injury with subchondral BME, course of PPS injections", "format": "in vivo, human", "conditions": "for BME on T1 weighted MRI: subject, one week after completing 10 x 100 mg/ml IM injections, FIG. 1B vs FIG. 1A", "protocol": "FIG. 1A is an MRI (T1 weighted scans) of subject […] showing the presence of bone marrow edema in the subchondral bone of the in left femoral condyle. Edema is evidenced by the reduced intensity of the signals in the semi-circular region beneath the articular cartilage. The MRI was taken 5 days following initial joint injury; and\nFIG. 1B is an MRI (T1 weighted scans) of subject […] taken one week after completing a course of 10×100 mg/ml IM injection of pentosan polysulfate. […] Magnification of MRI image shown is slightly higher than for FIG. 1A.\nA subject ([…]) in good general health while jogging on the footpath stumbled and fell laterally striking the pavement with their right knee. Next day the knee was swollen and extremely painful and when examined by a medical practitioner was diagnosed as avulsion of the collateral ligament attachment to tibial bone. […] Five days after sustaining the injury surgical repair was undertaken to re-attach the free ligament bone insertion to the tibia. However the knee pain persisted thereafter and was not relieved by use of analgesics or NSAIDs. Five weeks after the surgery a course of PPS, 100 mg/ml injections administered intramuscularly twice weekly for 5 weeks was initiated (total of 10 injections). After receiving the 6th injection, the pain and joint swelling had disappeared and one week after completion of the PPS course of injections the joint was again reviewed by T1 weighted MM."}, "[2]": {"tested_on": "sub-chondral bone contusion (BME)", "experiment": "Case report Example 3: subject one, knee pain after sub-chondral bone contusion (BME), daily intramuscular PPS", "format": "in vivo, human", "conditions": "for knee pain: 100 mg intramuscular daily", "protocol": "For example, in one instance, the pain suffered by a patient was so debilitating that the patient received a total of 7 intramuscular injections (7×1 ml ampoules PPS [7×100 mg]) over a period of 7 day until the pain resolved. This equated to just over 1.0 mg/kg PPS daily.\nA healthy person one with genu varum of approximately 5 degrees slipped on a step at an airport terminal while rushing to catch an international flight such that their left foot made an unexpected high impact with the ground. After arriving at their destination late that evening, the person retired for the night but was woken in the early hours of the morning with intense throbbing pain originating from the medial compartment of their left knee joint."}, "[3]": {"conditions": "cited from earlier work"}, "OA": {"tested_on": "OA", "conditions": "cited from earlier work"}}}
{"substance": "pentosan polysulfate [PPS]", "values": [{"measurement": "pain and joint swelling", "setting": "[1]; subject three, 100 mg/ml intramuscularly twice weekly for 5 weeks, after the 6th injection", "value": "disappeared"}, {"measurement": "BME on T1 weighted MRI", "setting": "[1]", "value": "completely resolved"}, {"measurement": "BME on T1 weighted MRI", "setting": "[1]; listed as pentosan polysulfate", "value": "absence of bone marrow edema"}, {"measurement": "pain", "setting": "[2]; a patient, 7 intramuscular injections (7 x 100 mg) over 7 days, just over 1.0 mg/kg daily", "value": "resolved"}, {"measurement": "knee pain", "setting": "[2]; subject one, after the 7th injection", "value": "completely resolved"}, {"measurement": "knee pain", "setting": "[2]; subject one, following the 5th injection", "value": "substantially subsided"}, {"measurement": "recurrence of debilitating joint pain", "setting": "[2]; subject one, subsequent months following the PPS course of therapy", "value": "did not re-occur"}, {"measurement": "anticoagulant activity compared with heparin", "setting": "[3]", "value": "weaker anticoagulant than heparin"}, {"measurement": "symptoms in patients with OA", "setting": "OA", "value": "symptomatic relief"}]}
